Patent US8841296B2, “Substituted 1, 4-dioxa-8-azaspiro[4,5]decanes useful as fungicides and a process for the preparation thereof” (Council of Scientific and Industrial Research, Anusandhan …, priority 2009, dated 2014)

What was measured:
grape powdery mildew = experiment: Field experiment against grape powdery mildew; format: in vivo, grapevine; details: for PDI on Bunches 11 DAIIS / % Disease Control (11 DAIIS): 11 days after 2nd spray; for % Disease Control (11 DAIIS) / % Disease Control (15 DAIIS): over untreated check; for PDI on Bunches 15 DAIIS / % Disease Control (15 DAIIS): 15 days after 2nd spray
Method: A field experiment was conducted on pruned grapevine, in a randomized block design with ten treatments (Table No 1) and three replications. Two sprays were given at an interval of 10 days. The plot size was eight vines per treatment/replication. The spraying was done by Knapsack sprayer using 850 L spray volume/hectare. […] Based on the observations percent incidence was worked out.

rose powdery mildew = experiment: Field experiment against rose powdery mildew; format: in vivo; details: 4 days after spray; for Rose PM % Control: over untreated check
Source text: Two sprays were given at an interval of 4 days. The spraying was done by Foot operated sprayer using 1200 L spray volume/hectare. […] Based on the observations percent incidence was worked out. The data was subjected to statistical analysis.

grape downy mildew = experiment: Field experiment against grape downy mildew; format: in vivo, grapevine
Method: A field experiment was conducted on pruned grapevine, in a randomized block design with ten treatments (Table No. 3) and three replications. Two sprays were given at an interval of 6 days starting at 28 days after pruning. The plot size was ten vines per treatment/replication. The spraying was done by Knapsack sprayer using 1000 L spray volume/hectare. […] Based on the observations, percent disease incidence was worked out. The data was subjected to statistical analysis.

Drechslera oryzae = experiment: Growth inhibition plate assay, D. oryzae; format: cell-based; details: ND = Not Detectable
Colletotrichum capsici = experiment: Growth inhibition plate assay, C. capsici; format: cell-based; details: ND = Not Detectable
Rhizoctonia solani = experiment: Growth inhibition plate assay, R. solani; format: cell-based; details: ND = Not Detectable, read-out: Plate assay inhibition, P1 R. solani
Pyrricularia oryzae = experiment: microbe, parasite or virus in culture; format: cell-based; details: ND = Not Detectable
Pythium aphanidermatum = experiment: Growth inhibition plate assay, P. aphanidermatum; format: cell-based; details: ND = Not Detectable, read-out: Plate assay inhibition, P6 P. aphanidermatum
Fusarium oxysporum = experiment: Growth inhibition plate assay, F. oxysporum; format: cell-based; details: ND = Not Detectable; for inhibition at 25 ppm: Fusarium oxysporum, read-out: Plate assay inhibition, P4 F. oxysporum
[1] = test system: plant pathogenic fungi (all the test pathogens); format: cell-based; details: result in words

Q: With `c1ccc(CCN2CCC3(CC2)OCC(CSc2ccccc2)O3)cc1` (stereo not drawn) [Compound 6, 8-phenethyl-2-phenylsulphanylmethyl-1,4-dioxa-8-azaspiro[4,5]decane] as the molecule, how does the “PDI on Bunches 11 DAIIS” value (grape powdery mildew; 20% EC @ 340 g a.i./ha) read?
A: 11.89%

Q: And the “% Disease Control (11 DAIIS)” value (grape powdery mildew; 20% EC @ 340 g a.i./ha)?
A: 60.24%

Q: What about the “PDI on Bunches 15 DAIIS” value (grape powdery mildew; 20% EC @ 340 g a.i./ha) of the same molecule?
A: 10.6%

Q: And the “% Disease Control (15 DAIIS)” value (grape powdery mildew; 20% EC @ 340 g a.i./ha)?
A: 59.43%

Q: What about the “% Disease Control (11 DAIIS)” value (grape powdery mildew; 20% EC @ 510 g a.i./ha) of the same molecule?
A: 66.26%

Q: What about the “PDI on Bunches 15 DAIIS” value (grape powdery mildew; 20% EC @ 510 g a.i./ha) of the same molecule?
A: 9.1%

Q: And the “% Disease Control (15 DAIIS)” value (grape powdery mildew; 20% EC @ 510 g a.i./ha)?
A: 65.17%

Q: What about the “% Disease Control (11 DAIIS)” value (grape powdery mildew; 20% EC @ 680 g a.i./ha) of the same molecule?
A: 69.6%

Q: What about the “% Disease Control (15 DAIIS)” value (grape powdery mildew; 20% EC @ 680 g a.i./ha) of the same molecule?
A: 70.72%

Q: What about the “Rose PM % incidence 4 DAS” value (rose powdery mildew; 20% EC @ 240 g a.i./ha) of the same molecule?
A: 38.42%

Q: And the “Rose PM % Control” value (rose powdery mildew; 20% EC @ 240 g a.i./ha)?
A: 25.44%

Q: What about the “Rose PM % incidence 4 DAS” value (rose powdery mildew; 20% EC @ 480 g a.i./ha) of the same molecule?
A: 29.45%

Q: What about the “Rose PM % Control” value (rose powdery mildew; 20% EC @ 480 g a.i./ha) of the same molecule?
A: 42.84%

Q: And the “Rose PM % incidence 4 DAS” value (rose powdery mildew; 20% EC @ 720 g a.i./ha)?
A: 23.21%

Q: What about the “Rose PM % Control” value (rose powdery mildew; 20% EC @ 720 g a.i./ha) of the same molecule?
A: 54.95%

Q: What about the “Grape Downy mildew incidence 7 DAIIS” value (grape downy mildew; 20% EC @ 400 g a.i./ha, 7 days after 2nd spray) of the same molecule?
A: 16.14%

Q: And the “% Control (7 DAIIS)” value (grape downy mildew; 20% EC @ 400 g a.i./ha, 7 days after 2nd spray, over untreated check)?
A: 4.21%

Q: What about the “Grape Downy mildew incidence 10 DAIIS” value (grape downy mildew; 20% EC @ 400 g a.i./ha, 10 days after 2nd spray) of the same molecule?
A: 24.88%

Q: What about the “% Control (10 DAIIS)” value (grape downy mildew; 20% EC @ 400 g a.i./ha, 10 days after 2nd spray, over untreated check) of the same molecule?
A: 0%

Q: And the “Grape Downy mildew incidence 7 DAIIS” value (grape downy mildew; 20% EC @ 800 g a.i./ha, 7 days after 2nd spray)?
A: 16.91%

Q: And the “% Control (7 DAIIS)” value (grape downy mildew; 20% EC @ 800 g a.i./ha, 7 days after 2nd spray, over untreated check)?
A: 0%

Q: What about the “Grape Downy mildew incidence 10 DAIIS” value (grape downy mildew; 20% EC @ 800 g a.i./ha, 10 days after 2nd spray) of the same molecule?
A: 17.7%

Q: What about the “% Control (10 DAIIS)” value (grape downy mildew; 20% EC @ 800 g a.i./ha, 10 days after 2nd spray, over untreated check) of the same molecule?
A: 22.3%

Q: What about the “Plate assay inhibition, P3 D. oryzae” value (Drechslera oryzae; 25 ppm, listed as C6) of the same molecule?
A: 70-80%

Q: And the inhibition at 25 ppm (Drechslera oryzae; Bipolaris oryzae, read-out: Plate assay inhibition, P3 D. oryzae, 25 ppm)?
A: 60 to 90%

Q: And the “Plate assay inhibition, P2 C. capsici” value (Colletotrichum capsici; 25 ppm, listed as C6)?
A: 60-70%

Q: And the inhibition at 25 ppm (Colletotrichum capsici; Colletotrichum truncatum, read-out: Plate assay inhibition, P2 C. capsici)?
A: 60 to 90%

Q: And the inhibition at 25 ppm (Rhizoctonia solani)?
A: 90 to 100%

Q: What about the “Plate assay inhibition, P5 P. oryzae” value (Pyrricularia oryzae; 25 ppm, listed as C6) of the same molecule?
A: 80-90%

Q: And the inhibition at 25 ppm (Pyrricularia oryzae; Pyricularia oryzae, read-out: Plate assay inhibition, P5 P. oryzae, 25 ppm)?
A: 60 to 90%

Q: What about the inhibition at 25 ppm (Pythium aphanidermatum) of the same molecule?
A: 50 to 60%

Q: What about the “Plate assay inhibition, P4 F. oxysporum” value (Fusarium oxysporum; 25 ppm, listed as C6) of the same molecule?
A: 70-80%

Q: What about the inhibition at 25 ppm (Fusarium oxysporum) of the same molecule?
A: 60 to 90%

Q: What about the “fungicidal activity against plant pathogenic fungi” value [1] of the same molecule?
A: active against all pathogens

Q: Which results are given for `Fc1ccc(Cl)cc1NCC1COC2(CCN(Cc3cnc(Cl)s3)CC2)O1` (stereo not drawn) [Compound 8, N-(5-chloro-2-fluorophenyl)-N-{8-(2-chloro-5-thiazolyl)methyl-1,4-dioxa-8-aza-spiro[4,5]dec-2-yl}methanamine]?
A: inhibition at 25 ppm (Pythium aphanidermatum): 50 to 60%; inhibition at 25 ppm (Fusarium oxysporum): 20 to 30%

Q: Which “Grape Downy mildew incidence 7 DAIIS” value (grape downy mildew; 50 WP @ 500 g a.i./ha, 7 days after 2nd spray) does the source give for `COc1ccc(C(=CC(=O)N2CCOCC2)c2ccc(Cl)cc2)cc1OC` [Dimethomorph, reference compound] here?
A: 2.39%

Q: And the “Grape Downy mildew incidence 10 DAIIS” value (grape downy mildew; 50 WP @ 500 g a.i./ha, 10 days after 2nd spray)?
A: 2.42%

Q: What about the “% Control (7 DAIIS)” value (grape downy mildew; 500 g/ha, 168 h) of the same molecule?
A: 85.81%

Q: What about the “% Control (10 DAIIS)” value (grape downy mildew; 500 g/ha, 240 h) of the same molecule?
A: 89.37%

Q: Which “PDI on Bunches 11 DAIIS” value (grape powdery mildew; 5 E @ 42.50 g a.i./ha) does the source give for `CCCCC(O)(Cn1cncn1)c1ccc(Cl)cc1Cl` (stereo not drawn) [Hexaconazole, reference compound] here?
A: 8.59%

Q: And the “% Disease Control (11 DAIIS)” value (grape powdery mildew; 5 E @ 42.50 g a.i./ha)?
A: 71.28%

Q: What about the “PDI on Bunches 15 DAIIS” value (grape powdery mildew; 5 E @ 42.50 g a.i./ha) of the same molecule?
A: 4.81%

Q: And the “% Disease Control (15 DAIIS)” value (grape powdery mildew; 5 E @ 42.50 g a.i./ha)?
A: 81.59%

Q: Which “PDI on Bunches 11 DAIIS” value (grape powdery mildew; 50 SC 425 g a.i./ha) does the source give for `CO/N=C(/C(=O)OC)c1ccccc1COc1ccccc1C` [Kresoxim methyl, reference compound] here?
A: 5.5%

Q: What about the “% Disease Control (11 DAIIS)” value (grape powdery mildew; 50 SC 425 g a.i./ha) of the same molecule?
A: 81.61%

Q: And the “PDI on Bunches 15 DAIIS” value (grape powdery mildew; 50 SC 425 g a.i./ha)?
A: 3.55%

Q: What about the “% Disease Control (15 DAIIS)” value (grape powdery mildew; 50 SC 425 g a.i./ha) of the same molecule?
A: 86.41%
